According to patent US11993586B2, “Crystalline forms of potassium channel modulators” (Novartis AG, priority 2018, dated 2024):

Assay: Solid form stability (conversion on heating or storage, by 1H solution NMR and XRPD)
Assay type: physicochemical
Description: Form C was obtained by slow evaporation from an IPA solution at RT. […] (onset temperatures) and 93.3° C. (peak temperature) (FIG. 5).
Form D was obtained via slow evaporation from EtOH solution at RT. […] (onset temperatures) and an exotherm at 88.5° C. (peak temperature) (FIG. 8).
(onset temperatures) (FIG. 9).
Form F was obtained by evaporation of DCM solution (100 mg scale) at RT for 1 day. […] (onset temperatures) and an exotherm at 86.9° C. (peak temperature) (FIG. 11).

Cc1ccn(-c2nc(NC3CCC(F)(F)CC3)cc(N3CCOCC3)n2)n1 [Form C]
Solid form conversion (heated to 110° C.): converted to anhydrate Form B
Solid form conversion (stored at RT for 8 days): converted to anhydrate Form B

Cc1ccn(-c2nc(NC3CCC(F)(F)CC3)cc(N3CCOCC3)n2)n1 [Form D]
Solid form conversion (stored at RT for a month): converted to anhydrate Form B

Cc1ccn(-c2nc(NC3CCC(F)(F)CC3)cc(N3CCOCC3)n2)n1 [Form E]
Solid form conversion (heated to 130° C.): converted to anhydrate Form B

Cc1ccn(-c2nc(NC3CCC(F)(F)CC3)cc(N3CCOCC3)n2)n1 [Form F]
Solid form conversion (heated to 120° C.): converted to anhydrate Form B
